# Data published in US20220288223A1, “ACTIVATABLE SPECIFIC BINDING MEMBER COMPLEXES, AND METHODS OF MAKING AND USING SAME” (The Regents of the University of California, priority 2019, published 2022).
# Legend:
# EGFR = EGFR (Homo sapiens, UniProt P00533); test: EGFR binding curve of PA-cetuximab with and without thrombin (FIG. 4)
# [1] = system: head and neck cancer cell line (Cal-27); test: Immunohistocytochemistry, HRP-dependent DAB staining (FIG. 4); assay type: cell-based
# Thrombin = Thrombin (Homo sapiens, UniProt P00734); test: Gel electrophoresis of PA-cetuximab after thrombin treatment (FIG. 5); assay type: biochemical; settings: thrombin activation
# Text: Protease cleavage of blocked PA-cetuximab causes size change as CDR blocking domains is proteolytically released from cetuximab panibody. Lane 1 is a protein marker.
# [2] = system: orthotopic Cal-27 xenograft tumors; test: In vivo ratiometric fluorescence imaging of RACPPs in orthotopic tongue tumor model; settings: mice, orthotopic Cal-27 tongue tumors, IV injection
# Text: FIG. 2. In vivo ratiometric fluorescence imaging of RACPPs in orthotopic tongue tumor model (Cal27) for protease selective probes.
substance,measurement,setting,value
(Acety-QGQSGQCISPRGCPDGPYVMY-PEG6-(Nle-TPRSFL)-PEG24)n-cetuximab [PA-cetuximab],EGFR binding,"EGFR; after thrombin treatment, EGFR protein",allow binding
same,EGFR binding,EGFR; without thrombin (solid line),blocked
same,Binding to Cal-27 cells (DAB staining on membranes),"[1]; FIG. 4 panel C, equivalent with no antibody control (E)",blocks binding
same,Binding to Cal-27 cells (DAB staining on membranes),[1]; FIG. 4 panel D,binding
same,Binding to cells (Cal-27) that express EGFR,[1]; after thrombin treatment,allow binding
same,Change in size of inhibited complex on acrylamide gel,Thrombin,size shift
"KLRFSQK [Cy5/Cy7 RACPP, cathepsin cleavable probe]",Ratiometric fluorescence labeling of tumor versus adjacent tissue,[2],very selective targeting to cancerous tongue
PLGC(me)AG,Ratiometric fluorescence labeling of tumor versus adjacent tissue,[2],good cleavage in the tumor but also had high signal in adjacent tongue
TGRAAA,Ratiometric fluorescence labeling of tumor versus adjacent tissue,[2],high level localized uptake at the center of the tumor
YGRAAA,Ratiometric fluorescence labeling of tumor versus adjacent tissue,[2],tumor specific labeling at high intensity with very low labeling of adjacent tissue
